Patent publication US5519042A, “Method of treating hyperproliferative vascular disease” (priority 1994, dated 1996)

System: injured carotid arteries
Test: Effect on intimal thickening in injured carotid arteries (balloon catheter injury, morphometry)
Assay type: in vivo, male Sprague-Dawley (SD) rats
Conditions: for Intima Percent (±S.E.): mean ± standard error, untreated injured control 46.06 ± 16.36
Method: The effect of N-(4-trifluoromethylphenyl)-5-methylisoxazole-carboxamide (compound I) on hyperproliferative vascular disease was established in an in vivo standard pharmacological test procedure that emulates the hyperproliferative effects observed in mammals that are undergoing intimal smooth muscle proliferation and are therefore developing restenosis. Cyclosporin A was also evaluated in these test procedure for the purpose of comparison.
Compound 1 was also evaluated in an in vivo standard pharmacological test procedure that emulates the vascular injury suffered and restenosis that develops following percutaneous transluminal coronary angioplasty in humans.
Intimal smooth muscle proliferation was produced by balloon catheter injury to the left carotid artery of groups of 6, male Sprague-Dawley (SD) rats. […] A balloon catheter (2 French Fogarty, Edwards Laboratories, Santa Anna, Calif.) was passed through the external carotid artery into the aorta. The balloon was then inflated with an amount of water sufficient to distend the common carotid artery and was then pulled back to the external carotid artery. The inflation and pull back were repeated three times. This procedure leads to complete denudation of the endothelium throughout the common carotid artery, and also some injury typically occurs to the medial smooth muscle cells.
During a 17-days period (3 days before operation to 13 days after operation), these rats were divided into 2 groups of 6 animals and treated daily with compound 1 (20 mg/kg/day, intraperitoneal (i.p.)) or cyclosporin A (3 mg/kg/day; i.p.).
An injured group not treated with any drug was used as an injured control to establish the amount of intimal thickening in the absence of treatment. The right carotid was used as an uninjured control in all groups.
After the 14 day post-operative period, the rats were sacrificed, the carotids removed. The mean areas of the intima, media and total blood vessel wall were measured by morphometry. The injured artery was also examined using histopathologic assays. Results are presented as an intima percent, expressed as follows: [formula]

Row | Compound | decrease in the mean percentage intimal thickening compared with the untreated injured control group (20 mg/kg/day i.p.) [%] | Intima Percent (±S.E.) (20 mg/kg/day i.p., 3 days before to 13 days after operation) [%] | reduction in intimal thickening (in words) (3 mg/kg/day i.p.) | Intima Percent (±S.E.) (3 mg/kg/day i.p., 14 days) [%]
1 | Cc1oncc1C(=O)Nc1ccc(C(F)(F)F)cc1 [Compound 1, N-(4-trifluoromethylphenyl)-5-methylisoxazole-4-carboxamide] | 83 | 7.88 ± 7.88 |  | 
2 | Cyclosporin A |  |  | failed to produce any meaningful reduction in intimal thickening | 39.39 ± 26.06
